Data reported in the supplement of paper PMC10307832.

What was measured:
Experiment in all cases: relative viability (nuclei count vs DMSO), 5 days (fraction); higher = more cells survive
A-427 = system: A-427
Summary of the method: (§1)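 Relative viability is defined as nuclei in treated wells over nuclei in vehicle wells. Duplicate plates were run and medians reported. Lung cancer cell lines in 1536-well plates were dosed by pin tool one day after seeding, with one drug or with a fixed anchor-drug dose plus five library-drug doses (not always all listed) in √10 steps, and nuclei were counted after 5 days.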

COR-L 105 = system: COR-L 105
Summary of the method: as §1

EPLC-272H = system: EPLC-272H
Summary of the method: as §1

HCC-15 = system: HCC-15
Summary of the method: as §1

HCC-44 = system: HCC-44
Summary of the method: as §1

LC-2-ad = system: LC-2-ad
Summary of the method: as §1

LCLC-97TM1 = system: LCLC-97TM1
Summary of the method: as §1

NCI-H1395 = system: NCI-H1395
Summary of the method: as §1

NCI-H1734 = system: NCI-H1734
Summary of the method: as §1

NCI-H1792 = system: NCI-H1792
Summary of the method: as §1

NCI-H1915 = system: NCI-H1915
Summary of the method: as §1

NCI-H1975 = system: NCI-H1975
Summary of the method: as §1

NCI-H2023 = system: NCI-H2023
Summary of the method: as §1

NCI-H2342 = system: NCI-H2342
Summary of the method: as §1

NCI-H2347 = system: NCI-H2347
Summary of the method: as §1

NCI-H2405 = system: NCI-H2405
Summary of the method: as §1

NCI-H520 = system: NCI-H520
Summary of the method: as §1

NCI-H838 = system: NCI-H838
Summary of the method: as §1

SW 1573 = system: SW 1573
Summary of the method: as §1

SW 900 = system: SW 900
Summary of the method: as §1

UMC-11 = system: UMC-11
Summary of the method: as §1

CN1CCN(CCOc2cc(OC3CCOCC3)c3c(Nc4c(Cl)ccc5c4OCO5)ncnc3c2)CC1 [Saracatinib] + Nc1ncn([C@H]2C[C@H](O)[C@@H](CO)O2)c(=O)n1 [Decitabine] (partner 2 µM)
relative viability (A-427; first compound 0.02 µM): 0.533
relative viability (A-427; first compound 0.2 µM): 0.511
relative viability (A-427; first compound 0.6325 µM): 0.593
relative viability (A-427; first compound 2 µM): 0.526
relative viability (COR-L 105; first compound 0.02 µM): 0.719
relative viability (COR-L 105; first compound 0.2 µM): 0.485
relative viability (COR-L 105; first compound 0.6325 µM): 0.635
relative viability (COR-L 105; first compound 2 µM): 0.458
relative viability (EPLC-272H; first compound 0.02 µM): 0.388
relative viability (EPLC-272H; first compound 0.2 µM): 0.361
relative viability (EPLC-272H; first compound 0.6325 µM): 0.442
relative viability (EPLC-272H; first compound 2 µM): 0.37
relative viability (HCC-15; first compound 0.02 µM): 0.73
relative viability (HCC-15; first compound 0.2 µM): 0.62
relative viability (HCC-15; first compound 0.6325 µM): 0.605
relative viability (HCC-15; first compound 2 µM): 0.557
relative viability (HCC-44; first compound 0.02 µM): 0.964
relative viability (HCC-44; first compound 0.2 µM): 0.854
relative viability (HCC-44; first compound 0.6325 µM): 0.994
relative viability (HCC-44; first compound 2 µM): 0.94
relative viability (LC-2-ad; first compound 0.02 µM): 0.79
relative viability (LC-2-ad; first compound 0.2 µM): 0.751
relative viability (LC-2-ad; first compound 0.6325 µM): 0.779
relative viability (LC-2-ad; first compound 2 µM): 0.789
relative viability (LCLC-97TM1; first compound 0.02 µM): 0.244
relative viability (LCLC-97TM1; first compound 0.2 µM): 0.18
relative viability (LCLC-97TM1; first compound 0.6325 µM): 0.215
relative viability (LCLC-97TM1; first compound 2 µM): 0.178
relative viability (NCI-H1395; first compound 0.02 µM): 0.752
relative viability (NCI-H1395; first compound 0.2 µM): 0.753
relative viability (NCI-H1395; first compound 0.6325 µM): 0.737
relative viability (NCI-H1395; first compound 2 µM): 0.635
relative viability (NCI-H1734; first compound 0.02 µM): 0.524
relative viability (NCI-H1734; first compound 0.6325 µM): 0.491
relative viability (NCI-H1734; first compound 2 µM): 0.475
relative viability (NCI-H1792; first compound 0.02 µM): 0.597
relative viability (NCI-H1792; first compound 0.2 µM): 0.464
relative viability (NCI-H1792; first compound 0.6325 µM): 0.687
relative viability (NCI-H1792; first compound 2 µM): 0.522
relative viability (NCI-H1915; first compound 0.02 µM): 0.245
relative viability (NCI-H1915; first compound 0.2 µM): 0.264
relative viability (NCI-H1915; first compound 0.6325 µM): 0.255
relative viability (NCI-H1915; first compound 2 µM): 0.237
relative viability (NCI-H1975; first compound 0.02 µM): 0.45
relative viability (NCI-H1975; first compound 0.2 µM): 0.37
relative viability (NCI-H1975; first compound 0.6325 µM): 0.386
relative viability (NCI-H1975; first compound 2 µM): 0.338
relative viability (NCI-H2023; first compound 0.02 µM): 0.245
relative viability (NCI-H2023; first compound 0.2 µM): 0.176
relative viability (NCI-H2023; first compound 0.6325 µM): 0.204
relative viability (NCI-H2023; first compound 2 µM): 0.222
relative viability (NCI-H2342; first compound 0.02 µM): 0.791
relative viability (NCI-H2342; first compound 0.2 µM): 0.677
relative viability (NCI-H2342; first compound 0.6325 µM): 0.673
relative viability (NCI-H2342; first compound 2 µM): 0.656
relative viability (NCI-H2347; first compound 0.02 µM): 0.629
relative viability (NCI-H2347; first compound 0.2 µM): 0.538
relative viability (NCI-H2347; first compound 0.6325 µM): 0.595
relative viability (NCI-H2347; first compound 2 µM): 0.578
relative viability (NCI-H2405; first compound 0.02 µM): 0.698
relative viability (NCI-H2405; first compound 0.2 µM): 0.717
relative viability (NCI-H2405; first compound 0.6325 µM): 0.583
relative viability (NCI-H2405; first compound 2 µM): 0.4
relative viability (NCI-H520; first compound 0.02 µM): 0.544
relative viability (NCI-H520; first compound 0.2 µM): 0.499
relative viability (NCI-H520; first compound 0.6325 µM): 0.434
relative viability (NCI-H520; first compound 2 µM): 0.346
relative viability (NCI-H838; first compound 0.02 µM): 0.45
relative viability (NCI-H838; first compound 0.2 µM): 0.417
relative viability (NCI-H838; first compound 0.6325 µM): 0.467
relative viability (NCI-H838; first compound 2 µM): 0.411
relative viability (SW 1573; first compound 0.02 µM): 0.512
relative viability (SW 1573; first compound 0.2 µM): 0.481
relative viability (SW 1573; first compound 0.6325 µM): 0.458
relative viability (SW 1573; first compound 2 µM): 0.434
relative viability (SW 900; first compound 0.02 µM): 0.544
relative viability (SW 900; first compound 0.2 µM): 0.384
relative viability (SW 900; first compound 0.6325 µM): 0.399
relative viability (SW 900; first compound 2 µM): 0.635
relative viability (UMC-11; first compound 0.02 µM): 0.686
relative viability (UMC-11; first compound 0.2 µM): 0.667
relative viability (UMC-11; first compound 0.6325 µM): 0.453
relative viability (UMC-11; first compound 2 µM): 0.533
